The source made the active and inactive calls. No cut-off for these calls is given here.

22 compounds from ChEMBL document CHEMBL1136982, “Discovery of 1-benzoyl-3-cyanopyrrolo[1,2-a]quinolines as a new series of apoptosis inducers using a cell- and caspase-based high-throughput screening assay. 2: Structure-activity relationships of the 4-, 5-, 6-, 7- and 8-positions” (Bioorg Med Chem Lett, 2009) can be followed below.

The subject of assay [1] is T47D. The assay can be described thus: Cell cycle arrest in human T47D cells by accumulation at G2/M phase after 24 to 48 hrs by flow cytometry. The class given is functional, cell-based. In general terms: In flow cytometry, cells or beads pass a laser one at a time.
Assay [2] relates to SNU-398. Description: Induction of apoptosis in human SNU398 cells measured after 48 hrs by cell and caspase based HTS assay. The format is functional. The settings on record: SNU-398, 48 h.
The subject of assay [3] is T47D. Description: Induction of apoptosis in human T47D cells measured after 48 hrs by cell and caspase based HTS assay. The class given is functional.
Assay [4] deals with HCT-116. The assay can be described thus: Induction of apoptosis in human HCT116 cells measured after 48 hrs by cell and caspase based HTS assay. The class given is functional. The settings on record: HCT-116, 48 h.
The nature of assay [5]: Inhibition of tubulin polymerization up to 50 uM.
Assay [6] has as its system HCT-116. Description: Growth inhibition of human HCT116 cells after 48 hrs. The class given is functional. The settings on record: HCT-116, 48 h.
Assay [7] deals with SNU-398. Description: Growth inhibition of human SNU398 cells after 48 hrs. The format is functional. The conditions noted are these: SNU-398, 48 h.
Assay [8] has as its system T47D. The assay can be described thus: Growth inhibition of human T47D cells after 48 hrs. The class given is functional.
Assay [9] can be described thus: Inhibition of tubulin polymerization.

By EC50 is commonly meant the concentration that produces a half-maximal response. A high value points to lower potency in that assay. For `N#Cc1cc(C(=O)c2ccccc2)n2c1ccc1c(Cl)cccc12`, in the assay on T47D [1], the result was Active. Also, the EC50 was more than 10 µM in the assay on SNU-398 [2], 0.083 µM in the assay on T47D [3] and 1.9 µM in the assay with HCT-116 [4]. The result in assay [5] was inactive.

For orientation: GI50 means the concentration that inhibits growth by half. Consider `N#Cc1cc(C(=O)c2cccc(O)c2)n2c1ccc1c(Cl)cccc12`, for which, in the assay with T47D [1], the outcome was Active. Further, the GI50 in the assay on HCT-116 [6] is 5.9 µM; in the assay on SNU-398 [7], 2.6 µM; with T47D [8], 0.16 µM. The results for the EC50 in the assay with SNU-398 [2], with T47D [3] and in the assay on HCT-116 [4] were 2.6 µM, 0.28 µM and 2.7 µM, respectively. In addition, in [5], the outcome was inactive.

As a reminder, the IC50 is the concentration at which inhibition is half-maximal. Read a high IC50 as lower potency. The compound `N#Cc1cc(C(=O)c2ccc(-n3ccnc3)cc2)n2c1ccc1ccccc12` returned an IC50 in [9] of less than 5 µM.

On to `N#Cc1cc(C(=O)c2ccc([N+](=O)[O-])cc2)n2c1ccc1c(Cl)cccc12`, for which the EC50 in the assay on SNU-398 [2] was more than 10 µM; with T47D [3], 0.062 µM; in the assay with HCT-116 [4], more than 10 µM.

For `N#Cc1cc(C(=O)c2ccccc2)n2c1ccc1c(OCCN3CCOCC3)cccc12`, the EC50 with SNU-398 [2], with T47D [3] and in the assay on HCT-116 [4] was more than 10 µM throughout.

As for `N#Cc1cc(C(=O)c2ccc(-n3ccnc3)cc2)n2c1ccc1c(Cl)cccc12`, the EC50 was 1.4 µM with SNU-398 [2], 0.29 µM in the assay with T47D [3] and 1.9 µM in the assay with HCT-116 [4].

Regarding `CN(C)CCOc1cccc2c1ccc1c(C#N)cc(C(=O)c3ccccc3)n12`, the EC50 in the assay with SNU-398 [2] worked out at 4.9 µM; in the assay on T47D [3], 2.8 µM; with HCT-116 [4], 6 µM.

As for `N#Cc1cc(C(=O)c2cccc([N+](=O)[O-])c2)n2c1ccc1c(Cl)cccc12`, the EC50 is more than 10 µM in the assay with SNU-398 [2], 0.15 µM with T47D [3] and more than 10 µM with HCT-116 [4].

Take `Cc1cc2c(C#N)cc(C(=O)c3ccccc3)n2c2ccccc12`: the EC50 was 0.22 µM in the assay on SNU-398 [2], 0.52 µM in the assay with T47D [3] and 0.31 µM in the assay with HCT-116 [4]. For the same compound, the IC50 in assay [9] is less than 5 µM.

Regarding `N#Cc1cc(C(=O)c2ccccc2)n2c1ccc1cc(Cl)ccc12`, the EC50 in the assay on SNU-398 [2], in the assay with T47D [3] and in the assay on HCT-116 [4] was more than 10 µM each time.

Take `COc1cccc(C(=O)c2cc(C#N)c3ccc4c(Cl)cccc4n23)c1`: the GI50 with HCT-116 [6] came out at 8.6 µM; in the assay on SNU-398 [7], 4.8 µM; in the assay on T47D [8] it was 0.018 µM. The EC50 was determined as 1.5 µM in the assay with SNU-398 [2], 0.08 µM with T47D [3] and 3.7 µM in the assay on HCT-116 [4].

Take `N#Cc1cc(C(=O)c2cccc(N)c2)n2c1ccc1c(Cl)cccc12`: the EC50 with SNU-398 [2] is 5 µM; in the assay with T47D [3], 0.21 µM; in the assay with HCT-116 [4], 5.6 µM.

With `CC(=O)O[C@H]1C(=O)[C@@]2(C)[C@H]([C@H](OC(=O)c3ccccc3)[C@]3(O)C[C@H](OC(=O)[C@H](O)[C@@H](NC(=O)c4ccccc4)c4ccccc4)C(C)=C1C3(C)C)[C@]1(OC(C)=O)CO[C@@H]1C[C@@H]2O` [PACLITAXEL], the figures for the GI50 with HCT-116 [6], in the assay on SNU-398 [7] and in the assay with T47D [8] were 0.06 µM, 0.061 µM and 0.026 µM, respectively. In addition, the EC50 is 0.009 µM in the assay with SNU-398 [2], 0.037 µM in the assay on T47D [3] and 0.018 µM with HCT-116 [4].

Take `N#Cc1cc(C(=O)c2ccccc2)n2c1ccc1c([N+](=O)[O-])cccc12`: the EC50 with SNU-398 [2], with T47D [3] and with HCT-116 [4] was more than 10 µM each time.

`Cc1cc2ccccc2n2c(C(=O)c3ccccc3)cc(C#N)c12`: the EC50 was more than 10 µM in the assay with SNU-398 [2], 5.8 µM in the assay with T47D [3] and more than 10 µM in the assay with HCT-116 [4].

As to `N#Cc1cc(C(=O)c2ccccc2)n2c1ccc1c(O)cccc12`, the EC50 in the assay with SNU-398 [2], in the assay on T47D [3] and with HCT-116 [4] was more than 10 µM each time.

Turning to `N#Cc1cc(C(=O)c2ccc(N)cc2)n2c1ccc1ccccc12`, the IC50 in assay [9] was less than 5 µM.

For the compound `N#Cc1cc(C(=O)c2ccc(F)cc2)n2c1ccc1c(Cl)cccc12`, in the assay on T47D [1], the outcome was Active. Further, the EC50 is more than 10 µM in the assay with SNU-398 [2], 0.053 µM in the assay on T47D [3] and more than 10 µM in the assay with HCT-116 [4]. Besides, the outcome in assay [5] was inactive.

As to `Cc1ccc2ccc3c(C#N)cc(C(=O)c4ccccc4)n3c2c1`, the EC50 was 5 µM in the assay with SNU-398 [2], 0.28 µM in the assay with T47D [3] and more than 10 µM in the assay with HCT-116 [4].

Regarding `CC[C@]1(O)C[C@@H]2CN(CCc3c([nH]c4ccccc34)[C@@](C(=O)OC)(c3cc4c(cc3OC)N(C)[C@H]3[C@@](O)(C(=O)OC)[C@H](OC(C)=O)[C@]5(CC)C=CCN6CC[C@]43[C@@H]65)C2)C1` [VINBLASTINE], the GI50 stood at 0.01 µM with HCT-116 [6], 0.005 µM with SNU-398 [7] and 0.007 µM in the assay with T47D [8]. For the same compound, the EC50 is 0.026 µM in the assay on SNU-398 [2], 0.032 µM in the assay with T47D [3] and 0.036 µM in the assay with HCT-116 [4].

`Cc1ccc2c(ccc3c(C#N)cc(C(=O)c4ccccc4)n32)c1`: the EC50 with SNU-398 [2], in the assay with T47D [3] and with HCT-116 [4] was more than 10 µM in each case.

Take `N#Cc1cc(C(=O)c2ccc(N)cc2)n2c1ccc1c(Cl)cccc12`: the EC50 with SNU-398 [2] was 1.4 µM; in the assay with T47D [3], 0.15 µM; in the assay with HCT-116 [4] it was 3.8 µM.
